In test [1] the target is T1, wild-type human transthyretin (TTR) (Homo sapiens, UniProt P02766).
T1 construct: made in house; host or cells: E. coli
Conditions: cited from earlier work.

A further test deals with T2, V 122I TTR (Homo sapiens, UniProt P02766, V142I).
T2 construct: made in house; host or cells: E. coli
Put plainly: In vitro fibrillogenesis by V122I TTR at acidic pH (turbidity at 400 nm). In kind it is biochemical. The following applies: 3.6 μM TTR, 10.8 μM inhibitor, pH 4.4, 37° C., average of two measurements; for inhibition at 10.8 µM: read-out: inhibitory effect on V 122I TTR fibrillogenesis. An excerpt:
(§1) The aim of this study was to evaluate the inhibitory effect of the same representative compounds of the inventions tested in Example 1 in vitro fibrillogenesis by human wild-type TTR and two major amyloidogenic variants (V30M and V 122I) at moderately acidic pH, in comparison to reference compounds. To highlight the inhibitory effect of CHF 5074 and CHF4795 versus diflunisal and tafamidis on in vitro fibrillogenesis by wild-type, V30M and V122I TTR at moderately acid pH, we followed the kinetics of fibril formation by these proteins, by monitoring the increase in turbidity at 400 nm as reported in Johnson et al., 2008, J. Med. Chem., 51:260 (which is incorporated herein by reference), upon incubation with TTR. The final concentration of TTR was of 3.6 μM, which is close to its physiological plasma concentration, with fibrillogenesis inhibitors at a final concentration of 10.8 μM. According to the procedure adopted for other inhibitors of fibrillogenesis (Johnson et al., 2008, J. Med. Chem., 51:260), TTR was incubated with each inhibitor at neutral pH (10 mM Na phosphate buffer, pH 7.2, 100 mM KCl, 1 mM EDTA) for 30 minutes at ambient temperature, prior to the incubation of the protein at acidic pH (200 mM Na Acetate buffer, pH 4.4, 100 mM KCl, 1 mM EDTA) at 37° C. in order to promote fibrillogenesis. Inhibitory effect data represent the average of two independent measurements for each compound.

Another test deals with T3, human wild-type TTR (Homo sapiens, UniProt P02766).
T3 construct: made in house; host or cells: E. coli
Put plainly: In vitro fibrillogenesis by wild-type TTR at acidic pH (turbidity at 400 nm). Format: biochemical. Conditions: 3.6 μM TTR, 10.8 μM inhibitor, pH 4.4, 37° C., average of two measurements; for inhibition at 10.8 µM: read-out: inhibitory effect on wild-type TTR fibrillogenesis.
Source text: as §1

In test [2] the target is T1, wild-type human transthyretin (TTR). Kind of test: Competitive binding to wild-type human TTR by fluorometric techniques. The following applies: 20° C.; for emission peak of TTR-bound ANS in the presence of the compound / emission peak of TTR-bound tafamidis in the presence of the compound / emission peak of TTR-bound trans-resveratrol in the presence of the compound: 10 μM compound; for emission peak of TTR-bound ANS in the presence of the compound: 10 μM ANS, excitation 360 nm; for emission peak of TTR-bound ANS in the presence of the compound / emission peak of TTR-bound trans-resveratrol in the presence of the compound: 5 μM TTR; for emission peak of TTR-bound tafamidis in the presence of the compound: 10 μM tafamidis, 10 μM TTR; for emission peak of TTR-bound tafamidis in the presence of the compound / emission peak of TTR-bound trans-resveratrol in the presence of the compound: excitation 320 nm; for emission peak of TTR-bound trans-resveratrol in the presence of the compound: 10 μM trans-resveratrol; for relative binding affinity to TTR (competitive binding assays taken together): 50 mM Na phosphate buffer, pH 7.2, 150 mM NaCl.

In the next test the target is T4, V30M TTR (Homo sapiens, UniProt P02766, V50M).
T4 construct: made in house; host or cells: E. coli
Put plainly: In vitro fibrillogenesis by V30M TTR at acidic pH (turbidity at 400 nm). Conditions: 3.6 μM TTR, 10.8 μM inhibitor, pH 4.4, 37° C., average of two measurements. Format: biochemical.
Source text: as §1

The values that follow come from patent US9150489B2, “1-(2-fluorobiphenyl-4-yl)-alkyl carboxylic acid derivatives for the therapy of transthyretin amyloidosis” (CHIESI FARMACEUTICI S.p.A., priority 2010, dated 2015).

Consider `O=S(=O)(O)c1cccc2cccc(Nc3ccccc3)c12` [ANS, 8-anilino-1-naphthalene sulfonate], for which the “binding affinity for TTR (known property of the fluorescent probes)” value in test [1] was “relatively low binding affinity”.
For the molecule `CC(C)(C(=O)O)c1ccc(-c2cc(Cl)cc(Cl)c2)c(F)c1` [CHF 4795, 2-methyl-(3′,5′-dichloro-2-fluoro-biphenyl-4-yl) propionic acid], the “inhibitory effect on V 122I TTR fibrillogenesis” value against V 122I TTR is reported as “about 92%”. For the same molecule, the “inhibitory effect on wild-type TTR fibrillogenesis” value at human wild-type TTR is listed as “about 75%”. For the same molecule, in test [2] (pH 7.2), the “emission peak of TTR-bound ANS in the presence of the compound” value is listed as “nearly completely abolished”, the “emission peak of TTR-bound tafamidis in the presence of the compound” value is listed as “nearly completely shifted to that of unbound tafamidis” and the “emission peak of TTR-bound trans-resveratrol in the presence of the compound” value is recorded as “nearly completely abolished”. Further, the “relative binding affinity to TTR (competitive binding assays taken together)” value in test [2] is on record as “higher binding affinity to TTR as compared to trans-resveratrol”. Moreover, on V30M TTR, the “inhibitory effect on V30M TTR fibrillogenesis” value is on record as “inhibitory effects similar to those observed with wild-type TTR”.
Regarding `O=C(O)C1(c2ccc(-c3ccc(Cl)c(Cl)c3)c(F)c2)CC1` [CHF 5074, 1-(3′,4′-dichloro-2-fluorobiphenyl-4-yl)cyclopropanecarboxylic acid], at V 122I TTR, the inhibition at 10.8 µM is around 92%. Further, the inhibition at 10.8 µM at human wild-type TTR was around 75%. In test [2] (pH 7.2), the “emission peak of TTR-bound ANS in the presence of the compound” value was “nearly completely abolished”, the “emission peak of TTR-bound tafamidis in the presence of the compound” value is given as “nearly completely shifted to that of unbound tafamidis” and the “emission peak of TTR-bound trans-resveratrol in the presence of the compound” value is recorded as “nearly completely abolished”. Further, the “relative binding affinity to TTR (competitive binding assays taken together)” value in test [2] is listed as “higher binding affinity to TTR as compared to trans-resveratrol”. Further, the “inhibitory effect on V30M TTR fibrillogenesis” value at V30M TTR is recorded as “inhibitory effects similar to those observed with wild-type TTR”.
`O=C(O)c1cc(-c2ccc(F)cc2F)ccc1O` [diflunisal, reference compound]: the inhibition at 10.8 µM is around 92% at V 122I TTR and around 75% at human wild-type TTR. The “inhibitory effect on V30M TTR fibrillogenesis” value against V30M TTR is “inhibitory effects similar to those observed with wild-type TTR”.
As to `O=C(O)c1ccc2nc(-c3cc(Cl)cc(Cl)c3)oc2c1` [tafamidis, 2-(3,5-dichlorophenyl)-1,3-benzoxazole-6-carboxylic acid, reference compound], the values for the inhibition at 10.8 µM at V 122I TTR and at human wild-type TTR were around 92% and around 75%, respectively. Further, the “inhibitory effect on V30M TTR fibrillogenesis” value on V30M TTR was “inhibitory effects similar to those observed with wild-type TTR”.
Regarding `Oc1ccc(/C=C/c2cc(O)cc(O)c2)cc1` [trans-resveratrol, reference compound], the “fluorescence emission of TTR-bound diflunisal exposed to equimolar compound” value in test [2] (10 μM TTR-bound diflunisal, equimolar compound, excitation 340 nm, pH 7.2) was “a spectrum similar to that of TTR-bound trans-resveratrol rather than to that of TTR-bound diflunisal was obtained”. The “binding affinity for TTR (known property of the fluorescent probes)” value in test [1] is listed as “high binding affinity, greater than that of thyroxine”.
